Laboratory results reported in US11358949B2, “Carbamate and urea compounds as multikinase inhibitors” (ANGEX PHARMACEUTICAL, INC., priority 2017, dated 2022).

How the values were obtained:
FMS = FMS (Homo sapiens, UniProt P07333); assay: HotSpot Kinase Assay, FMS
BRK = BRK (Homo sapiens, UniProt Q13882); assay: HotSpot Kinase Assay, BRK
Description: (§1) Specifically, for each reaction, kinase and substrate were mixed in a pH 7.5 buffer containing 20 mM HEPES, 10 mM MgCl2, 1 mM EGTA [Ethylene glycol-bis(2-aminoethylether)-N,N,N′,N′-tetraacetic acid], 0.02% Brij35, 0.02 mg/mL BSA (Bovine Serum Albumin), 0.1 mM Na3VO4, 2 mM DTT, and 1% DMSO. Compounds were then added to each reaction mixture. After a 20-min incubation, ATP (Sigma-Aldrich) and [γ-^33P] ATP (PerkinElmer) were added at a final total concentration of 100 μM. Reactions were carried out at room temperature for 2 hours and spotted onto P81 ion exchange cellulose chromatography paper (Whatman). […] The percent remaining kinase activity relative to a vehicle-containing (DMSO) kinase reaction was calculated for each kinase/inhibitor pair. […] IC50 values were calculated using Prism 5 (GraphPad).

LCK = LCK (Homo sapiens, UniProt P06239); assay: HotSpot Kinase Assay, LCK
Description: as §1

BLK = BLK (Homo sapiens, UniProt P51451); assay: HotSpot Kinase Assay, BLK
Description: as §1

DDR2 = DDR2 (Homo sapiens, UniProt Q16832); assay: HotSpot Kinase Assay, DDR2
Description: as §1

HPK4 = HPK4 (Homo sapiens, UniProt Q8NE63); assay: HotSpot Kinase Assay, HPK4
Description: as §1

FLT3 = FLT3 (Homo sapiens, UniProt P36888); assay: HotSpot Kinase Assay, FLT3
Description: as §1

MNK2 = MNK2 (Homo sapiens, UniProt Q9HBH9); assay: HotSpot Kinase Assay, MNK2
Description: as §1

c-Kit = c-Kit (Homo sapiens, UniProt P10721); assay: HotSpot Kinase Assay, c-Kit
Sequence of c-Kit (P10721 26-976): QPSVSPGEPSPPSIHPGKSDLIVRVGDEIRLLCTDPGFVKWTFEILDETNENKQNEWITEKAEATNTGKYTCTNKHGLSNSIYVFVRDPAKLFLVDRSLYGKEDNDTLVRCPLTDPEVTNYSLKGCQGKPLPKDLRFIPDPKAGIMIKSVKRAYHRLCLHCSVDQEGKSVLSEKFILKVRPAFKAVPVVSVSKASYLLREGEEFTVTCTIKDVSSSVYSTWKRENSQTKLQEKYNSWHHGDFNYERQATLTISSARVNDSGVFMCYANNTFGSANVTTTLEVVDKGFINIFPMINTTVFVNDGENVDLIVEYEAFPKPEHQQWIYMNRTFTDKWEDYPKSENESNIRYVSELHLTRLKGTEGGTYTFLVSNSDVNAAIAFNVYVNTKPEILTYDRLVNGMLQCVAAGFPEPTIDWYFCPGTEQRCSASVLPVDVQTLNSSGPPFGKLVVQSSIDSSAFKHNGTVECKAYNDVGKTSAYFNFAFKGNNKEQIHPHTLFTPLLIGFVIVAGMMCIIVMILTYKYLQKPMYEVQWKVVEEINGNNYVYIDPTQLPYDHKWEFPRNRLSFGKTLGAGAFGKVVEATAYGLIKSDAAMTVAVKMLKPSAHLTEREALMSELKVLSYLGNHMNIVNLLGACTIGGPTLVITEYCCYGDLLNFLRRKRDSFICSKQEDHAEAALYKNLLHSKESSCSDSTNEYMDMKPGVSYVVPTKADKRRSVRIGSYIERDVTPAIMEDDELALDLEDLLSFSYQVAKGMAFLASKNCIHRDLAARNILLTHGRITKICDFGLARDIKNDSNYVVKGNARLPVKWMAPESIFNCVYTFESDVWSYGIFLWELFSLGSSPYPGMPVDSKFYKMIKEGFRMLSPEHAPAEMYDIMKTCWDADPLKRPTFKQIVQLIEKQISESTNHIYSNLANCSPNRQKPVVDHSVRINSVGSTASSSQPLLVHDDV

MEK1 = MEK1 (Homo sapiens, UniProt Q02750); assay: HotSpot Kinase Assay, MEK1
Description: as §1

MEK5 = MEK5 (Homo sapiens, UniProt Q13163); assay: HotSpot Kinase Assay, MEK5
Sequence of MEK5 (Q13163 whole entry): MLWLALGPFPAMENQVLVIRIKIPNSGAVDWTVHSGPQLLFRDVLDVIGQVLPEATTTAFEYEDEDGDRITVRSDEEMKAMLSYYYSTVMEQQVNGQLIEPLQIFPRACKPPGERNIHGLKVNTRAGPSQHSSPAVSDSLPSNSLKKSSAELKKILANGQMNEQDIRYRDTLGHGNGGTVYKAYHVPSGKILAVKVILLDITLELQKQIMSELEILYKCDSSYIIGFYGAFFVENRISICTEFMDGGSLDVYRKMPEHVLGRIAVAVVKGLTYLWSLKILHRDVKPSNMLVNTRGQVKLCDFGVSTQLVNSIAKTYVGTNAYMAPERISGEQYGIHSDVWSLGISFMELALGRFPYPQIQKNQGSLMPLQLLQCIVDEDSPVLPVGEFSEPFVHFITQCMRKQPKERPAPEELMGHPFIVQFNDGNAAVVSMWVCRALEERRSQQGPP
Description: as §1

c-MER = biological target: T1, c-MER (Homo sapiens, UniProt Q12866); assay: HotSpot Kinase Assay, c-MER
T1 sequence (Q12866 21-999): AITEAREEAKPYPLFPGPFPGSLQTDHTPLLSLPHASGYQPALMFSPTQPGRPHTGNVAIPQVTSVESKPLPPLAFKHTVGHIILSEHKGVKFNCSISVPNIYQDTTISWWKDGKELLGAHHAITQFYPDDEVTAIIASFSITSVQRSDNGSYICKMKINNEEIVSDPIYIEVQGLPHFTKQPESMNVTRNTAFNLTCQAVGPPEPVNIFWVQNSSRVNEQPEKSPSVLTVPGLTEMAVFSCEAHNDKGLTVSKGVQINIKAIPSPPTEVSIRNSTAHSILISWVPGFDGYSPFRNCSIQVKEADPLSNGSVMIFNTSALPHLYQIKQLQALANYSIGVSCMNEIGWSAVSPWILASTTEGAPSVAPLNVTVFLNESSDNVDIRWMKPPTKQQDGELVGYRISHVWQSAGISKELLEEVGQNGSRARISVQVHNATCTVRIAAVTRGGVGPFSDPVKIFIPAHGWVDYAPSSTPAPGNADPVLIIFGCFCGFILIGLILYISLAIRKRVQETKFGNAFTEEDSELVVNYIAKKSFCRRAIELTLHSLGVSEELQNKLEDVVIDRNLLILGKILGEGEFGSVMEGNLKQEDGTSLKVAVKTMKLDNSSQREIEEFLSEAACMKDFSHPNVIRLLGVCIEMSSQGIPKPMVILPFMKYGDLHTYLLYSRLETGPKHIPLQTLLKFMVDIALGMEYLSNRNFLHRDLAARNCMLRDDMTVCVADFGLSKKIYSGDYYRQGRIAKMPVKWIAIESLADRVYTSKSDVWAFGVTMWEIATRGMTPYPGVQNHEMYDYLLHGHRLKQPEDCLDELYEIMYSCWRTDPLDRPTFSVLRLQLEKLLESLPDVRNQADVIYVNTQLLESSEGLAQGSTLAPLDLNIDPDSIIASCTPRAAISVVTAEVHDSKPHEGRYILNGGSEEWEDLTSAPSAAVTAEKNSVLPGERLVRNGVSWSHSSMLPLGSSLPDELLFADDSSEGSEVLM

c-MET = c-MET (Homo sapiens, UniProt P08581); assay: HotSpot Kinase Assay, c-MET
Description: as §1

EPHA2 = EPHA2 (Homo sapiens, UniProt P29317); assay: HotSpot Kinase Assay, EPHA2
EPHB2 = EPHB2 (Homo sapiens, UniProt P29323); assay: HotSpot Kinase Assay, EPHB2
Sequence of EPHB2 (P29323 19-1055): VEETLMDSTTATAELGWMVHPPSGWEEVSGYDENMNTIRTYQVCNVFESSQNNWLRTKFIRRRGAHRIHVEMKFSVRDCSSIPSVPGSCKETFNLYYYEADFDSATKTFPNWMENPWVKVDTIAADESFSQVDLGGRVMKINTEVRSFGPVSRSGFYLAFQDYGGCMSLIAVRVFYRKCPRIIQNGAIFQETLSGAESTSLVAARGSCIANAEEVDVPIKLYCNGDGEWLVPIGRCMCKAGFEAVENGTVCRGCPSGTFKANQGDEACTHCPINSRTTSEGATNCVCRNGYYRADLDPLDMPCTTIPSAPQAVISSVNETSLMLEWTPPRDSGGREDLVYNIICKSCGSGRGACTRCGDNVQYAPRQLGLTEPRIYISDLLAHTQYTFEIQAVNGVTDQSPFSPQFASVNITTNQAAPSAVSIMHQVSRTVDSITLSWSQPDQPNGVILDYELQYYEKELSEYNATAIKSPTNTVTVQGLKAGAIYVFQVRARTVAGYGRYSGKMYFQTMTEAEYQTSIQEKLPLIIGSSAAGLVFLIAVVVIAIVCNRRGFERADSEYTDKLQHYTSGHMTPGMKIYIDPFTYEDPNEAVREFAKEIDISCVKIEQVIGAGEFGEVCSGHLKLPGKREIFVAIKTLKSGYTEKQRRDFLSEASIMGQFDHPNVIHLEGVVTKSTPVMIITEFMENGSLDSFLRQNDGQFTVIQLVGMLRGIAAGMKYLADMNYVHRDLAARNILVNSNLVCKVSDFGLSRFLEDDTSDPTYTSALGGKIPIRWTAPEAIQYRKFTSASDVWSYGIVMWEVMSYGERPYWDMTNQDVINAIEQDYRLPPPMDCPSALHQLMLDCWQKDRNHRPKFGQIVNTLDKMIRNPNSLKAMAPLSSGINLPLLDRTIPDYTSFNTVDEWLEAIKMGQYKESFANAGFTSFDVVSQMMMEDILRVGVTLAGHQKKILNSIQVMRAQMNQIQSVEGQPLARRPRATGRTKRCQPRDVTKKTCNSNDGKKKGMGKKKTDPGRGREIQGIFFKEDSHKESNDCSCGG
Description: as §1

EPHA4 = EPHA4 (Homo sapiens, UniProt P54764); assay: HotSpot Kinase Assay, EPHA4
Description: as §1

EPHB1 = EPHB1 (Homo sapiens, UniProt P54762); assay: HotSpot Kinase Assay, EPHB1
Description: as §1

PLK4/SAK = PLK4/SAK (Homo sapiens, UniProt O00444); assay: HotSpot Kinase Assay, PLK4/SAK
Sequence of PLK4/SAK (O00444 whole entry): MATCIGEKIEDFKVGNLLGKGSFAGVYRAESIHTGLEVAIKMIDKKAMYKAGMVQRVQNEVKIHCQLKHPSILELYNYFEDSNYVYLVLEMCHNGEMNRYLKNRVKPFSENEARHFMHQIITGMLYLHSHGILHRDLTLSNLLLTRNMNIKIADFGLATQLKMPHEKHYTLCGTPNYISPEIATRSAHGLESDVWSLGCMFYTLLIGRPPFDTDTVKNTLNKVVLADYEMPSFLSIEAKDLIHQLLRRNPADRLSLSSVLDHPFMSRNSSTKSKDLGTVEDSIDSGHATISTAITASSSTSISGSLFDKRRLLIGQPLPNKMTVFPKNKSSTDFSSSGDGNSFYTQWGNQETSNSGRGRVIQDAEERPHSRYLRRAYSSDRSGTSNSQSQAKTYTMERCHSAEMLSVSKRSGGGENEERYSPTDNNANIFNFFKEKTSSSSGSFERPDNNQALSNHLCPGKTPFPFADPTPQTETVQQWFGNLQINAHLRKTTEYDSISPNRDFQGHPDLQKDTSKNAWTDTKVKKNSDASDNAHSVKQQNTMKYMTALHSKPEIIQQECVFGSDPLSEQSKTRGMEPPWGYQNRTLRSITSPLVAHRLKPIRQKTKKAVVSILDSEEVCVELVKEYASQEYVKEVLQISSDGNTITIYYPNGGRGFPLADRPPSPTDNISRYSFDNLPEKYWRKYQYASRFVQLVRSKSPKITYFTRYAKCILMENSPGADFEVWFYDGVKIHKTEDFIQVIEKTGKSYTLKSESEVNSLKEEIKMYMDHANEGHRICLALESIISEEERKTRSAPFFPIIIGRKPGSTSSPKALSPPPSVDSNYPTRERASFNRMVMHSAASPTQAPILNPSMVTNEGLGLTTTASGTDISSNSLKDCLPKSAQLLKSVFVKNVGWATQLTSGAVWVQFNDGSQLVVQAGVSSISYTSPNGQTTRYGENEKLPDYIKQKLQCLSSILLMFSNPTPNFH
Description: as §1

FRK/PTK5 = FRK/PTK5 (Homo sapiens, UniProt P42685); assay: HotSpot Kinase Assay, FRK/PTK5
Sequence of FRK/PTK5 (P42685 whole entry): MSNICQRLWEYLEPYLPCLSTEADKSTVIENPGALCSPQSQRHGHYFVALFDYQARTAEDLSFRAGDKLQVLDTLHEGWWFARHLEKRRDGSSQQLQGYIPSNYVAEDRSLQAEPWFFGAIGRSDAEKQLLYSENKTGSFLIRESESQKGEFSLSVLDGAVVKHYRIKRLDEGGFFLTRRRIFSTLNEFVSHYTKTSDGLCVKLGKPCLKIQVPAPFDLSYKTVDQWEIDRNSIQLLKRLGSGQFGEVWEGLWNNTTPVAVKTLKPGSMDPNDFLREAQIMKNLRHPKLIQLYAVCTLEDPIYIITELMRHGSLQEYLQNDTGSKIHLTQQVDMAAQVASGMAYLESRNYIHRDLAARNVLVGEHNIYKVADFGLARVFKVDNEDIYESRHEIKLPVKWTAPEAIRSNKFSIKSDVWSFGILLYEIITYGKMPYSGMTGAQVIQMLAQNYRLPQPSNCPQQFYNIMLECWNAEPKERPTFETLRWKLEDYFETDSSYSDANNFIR
Description: as §1

KDR/VEGFR2 = KDR/VEGFR2 (Homo sapiens, UniProt P35968); assay: HotSpot Kinase Assay, KDR/VEGFR2

Sequence of FMS (P07333 20-972): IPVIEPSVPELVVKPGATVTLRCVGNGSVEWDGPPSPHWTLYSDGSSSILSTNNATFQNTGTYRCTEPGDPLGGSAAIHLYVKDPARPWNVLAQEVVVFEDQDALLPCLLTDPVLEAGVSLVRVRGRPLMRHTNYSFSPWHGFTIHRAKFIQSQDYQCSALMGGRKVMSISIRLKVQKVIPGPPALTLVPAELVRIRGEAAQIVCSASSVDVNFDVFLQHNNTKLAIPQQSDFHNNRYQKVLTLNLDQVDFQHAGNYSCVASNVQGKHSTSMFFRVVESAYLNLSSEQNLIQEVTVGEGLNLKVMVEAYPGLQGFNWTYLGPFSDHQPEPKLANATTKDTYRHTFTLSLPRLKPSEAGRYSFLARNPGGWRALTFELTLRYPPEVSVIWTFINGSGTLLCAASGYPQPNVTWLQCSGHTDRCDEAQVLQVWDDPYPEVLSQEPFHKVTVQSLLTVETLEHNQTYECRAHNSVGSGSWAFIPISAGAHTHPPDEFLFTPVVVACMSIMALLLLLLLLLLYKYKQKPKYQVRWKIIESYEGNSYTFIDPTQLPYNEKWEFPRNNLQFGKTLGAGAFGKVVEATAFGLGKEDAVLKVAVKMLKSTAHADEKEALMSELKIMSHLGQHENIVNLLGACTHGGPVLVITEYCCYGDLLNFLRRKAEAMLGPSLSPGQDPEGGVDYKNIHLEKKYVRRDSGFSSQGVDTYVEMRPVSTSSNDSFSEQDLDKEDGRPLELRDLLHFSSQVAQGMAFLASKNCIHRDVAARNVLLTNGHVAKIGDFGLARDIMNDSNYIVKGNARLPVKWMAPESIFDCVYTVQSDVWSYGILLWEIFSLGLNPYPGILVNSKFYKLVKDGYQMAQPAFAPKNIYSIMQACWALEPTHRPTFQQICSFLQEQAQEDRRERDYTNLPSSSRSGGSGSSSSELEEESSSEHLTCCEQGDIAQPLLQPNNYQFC

COc1cc2c(Oc3ccc(NC(=O)C4(C(=O)Nc5ccc(F)cc5)CC4)cc3)ccnc2cc1OC(=O)N1CCN(C)CC1 [Compound 1-10]
IC50 (FMS): < 100 nM | IC50 (BRK): < 100 nM | IC50 (LCK): 100 to 1000 nM | IC50 (BLK): > 1000 nM | IC50 (DDR2): < 100 nM | IC50 (HPK4): < 100 nM | IC50 (FLT3): < 100 nM | IC50 (MNK2): 100 to 1000 nM | IC50 (c-Kit): < 100 nM | IC50 (MEK1): > 1000 nM | IC50 (MEK5): > 1000 nM | IC50 (c-MER): < 100 nM | IC50 (c-MET): < 100 nM | IC50 (EPHA2): < 100 nM | IC50 (EPHB2): 100 to 1000 nM | IC50 (EPHA4): 100 to 1000 nM | IC50 (EPHB1): 100 to 1000 nM | IC50 (PLK4/SAK): > 1000 nM | IC50 (FRK/PTK5): > 1000 nM | IC50 (KDR/VEGFR2): 100 to 1000 nM
